# Test results reported in ChEMBL document CHEMBL1140154, “1H-cyclopentapyrimidine-2,4(1H,3H)-dione-related ionotropic glutamate receptors ligands. structure-activity relationships and identification of potent and Selective iGluR5 modulators” (J Med Chem, 2008).
# Assays:
# [1] = biological target: Glutamate receptor ionotropic, kainate 2 (Rattus norvegicus, UniProt P42260); experiment: Displacement of [3H]kainic acid from rat recombinant iGluR6(V,C,R) receptor expressed in Sf9 cells
# [2] = biological target: T1, Glutamate receptor 1 (Rattus norvegicus, UniProt P19490); experiment: biochemical
# T1 sequence (P19490 whole entry): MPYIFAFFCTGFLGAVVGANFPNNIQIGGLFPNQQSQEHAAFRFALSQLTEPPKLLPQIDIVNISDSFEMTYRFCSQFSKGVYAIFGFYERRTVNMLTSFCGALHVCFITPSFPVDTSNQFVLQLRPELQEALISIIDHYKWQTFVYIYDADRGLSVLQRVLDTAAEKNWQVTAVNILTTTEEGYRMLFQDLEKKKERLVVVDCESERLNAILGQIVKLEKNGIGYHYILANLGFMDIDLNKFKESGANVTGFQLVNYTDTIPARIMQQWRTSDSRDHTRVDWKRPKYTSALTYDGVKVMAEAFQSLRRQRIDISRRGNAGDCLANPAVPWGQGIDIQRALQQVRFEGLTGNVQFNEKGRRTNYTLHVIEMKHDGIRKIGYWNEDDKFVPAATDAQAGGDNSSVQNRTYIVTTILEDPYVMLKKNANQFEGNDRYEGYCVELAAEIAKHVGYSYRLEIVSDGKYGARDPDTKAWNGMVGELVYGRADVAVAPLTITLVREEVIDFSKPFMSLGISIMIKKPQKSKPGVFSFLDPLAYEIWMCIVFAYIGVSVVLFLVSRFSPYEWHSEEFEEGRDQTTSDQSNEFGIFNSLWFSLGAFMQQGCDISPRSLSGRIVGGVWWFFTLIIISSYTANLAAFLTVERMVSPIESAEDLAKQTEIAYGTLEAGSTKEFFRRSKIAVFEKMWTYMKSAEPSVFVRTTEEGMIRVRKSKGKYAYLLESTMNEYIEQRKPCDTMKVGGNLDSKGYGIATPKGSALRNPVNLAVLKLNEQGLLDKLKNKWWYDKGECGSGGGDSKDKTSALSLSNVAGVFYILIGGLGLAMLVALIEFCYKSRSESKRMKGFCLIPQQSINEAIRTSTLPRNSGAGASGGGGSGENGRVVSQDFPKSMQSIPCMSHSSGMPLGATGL
# [3] = biological target: T2, Glutamate receptor 2 (Rattus norvegicus, UniProt P19491); experiment: biochemical
# T2 sequence (P19491 whole entry): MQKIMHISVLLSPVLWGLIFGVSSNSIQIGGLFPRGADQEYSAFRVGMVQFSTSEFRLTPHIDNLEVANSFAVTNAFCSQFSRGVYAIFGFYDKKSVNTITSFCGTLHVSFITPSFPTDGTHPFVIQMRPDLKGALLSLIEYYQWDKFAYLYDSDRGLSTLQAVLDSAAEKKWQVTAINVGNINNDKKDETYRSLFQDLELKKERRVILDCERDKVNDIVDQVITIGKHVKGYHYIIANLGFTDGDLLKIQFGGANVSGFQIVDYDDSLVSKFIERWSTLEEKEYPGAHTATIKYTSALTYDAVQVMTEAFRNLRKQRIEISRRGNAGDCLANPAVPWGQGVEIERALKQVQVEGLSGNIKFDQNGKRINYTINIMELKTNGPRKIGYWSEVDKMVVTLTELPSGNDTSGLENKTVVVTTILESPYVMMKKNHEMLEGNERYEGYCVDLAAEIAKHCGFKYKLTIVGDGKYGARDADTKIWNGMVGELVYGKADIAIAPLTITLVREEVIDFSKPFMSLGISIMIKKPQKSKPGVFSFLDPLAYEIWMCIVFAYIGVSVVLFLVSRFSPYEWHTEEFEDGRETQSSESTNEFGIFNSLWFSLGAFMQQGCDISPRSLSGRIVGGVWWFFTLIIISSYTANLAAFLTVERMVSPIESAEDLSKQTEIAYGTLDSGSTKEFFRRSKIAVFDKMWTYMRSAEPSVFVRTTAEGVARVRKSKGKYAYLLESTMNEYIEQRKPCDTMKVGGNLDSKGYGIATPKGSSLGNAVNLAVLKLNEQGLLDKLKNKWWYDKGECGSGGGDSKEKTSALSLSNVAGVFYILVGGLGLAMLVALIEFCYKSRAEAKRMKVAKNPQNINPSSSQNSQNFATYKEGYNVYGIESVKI
# [4] = biological target: T3, Glutamate receptor 3 (Rattus norvegicus, UniProt P19492); experiment: biochemical
# [5] = biological target: T4, Glutamate receptor 4 (Rattus norvegicus, UniProt P19493); experiment: biochemical
# T4 sequence (P19493 whole entry): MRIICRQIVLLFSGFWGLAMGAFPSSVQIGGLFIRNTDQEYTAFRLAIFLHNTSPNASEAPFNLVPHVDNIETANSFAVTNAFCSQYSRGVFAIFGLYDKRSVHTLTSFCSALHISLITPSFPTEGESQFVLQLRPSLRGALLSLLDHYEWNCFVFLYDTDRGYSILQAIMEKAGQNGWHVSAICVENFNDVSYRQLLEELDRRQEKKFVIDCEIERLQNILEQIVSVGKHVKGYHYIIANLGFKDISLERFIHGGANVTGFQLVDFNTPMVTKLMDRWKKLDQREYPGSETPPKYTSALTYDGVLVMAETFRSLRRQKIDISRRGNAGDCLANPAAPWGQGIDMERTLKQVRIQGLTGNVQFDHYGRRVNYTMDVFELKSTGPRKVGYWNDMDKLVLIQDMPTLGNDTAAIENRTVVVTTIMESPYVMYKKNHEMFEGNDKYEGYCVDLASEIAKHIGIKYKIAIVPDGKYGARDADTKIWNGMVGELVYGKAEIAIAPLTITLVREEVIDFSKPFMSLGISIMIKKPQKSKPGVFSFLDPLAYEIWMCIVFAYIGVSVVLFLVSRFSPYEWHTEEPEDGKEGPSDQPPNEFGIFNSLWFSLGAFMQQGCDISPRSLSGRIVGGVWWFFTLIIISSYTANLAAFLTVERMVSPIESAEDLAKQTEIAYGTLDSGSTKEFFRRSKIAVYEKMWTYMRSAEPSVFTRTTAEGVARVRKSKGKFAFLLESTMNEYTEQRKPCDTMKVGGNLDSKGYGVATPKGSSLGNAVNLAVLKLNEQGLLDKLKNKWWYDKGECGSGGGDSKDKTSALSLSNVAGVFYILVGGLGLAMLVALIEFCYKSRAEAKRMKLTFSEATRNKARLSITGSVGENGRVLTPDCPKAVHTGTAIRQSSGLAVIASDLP
# [6] = biological target: Glutamate receptor ionotropic, kainate 1 (Rattus norvegicus, UniProt P22756); experiment: biochemical
# Chain of Glutamate receptor ionotropic, kainate 1 (Rattus norvegicus, UniProt P22756) (P22756 whole entry): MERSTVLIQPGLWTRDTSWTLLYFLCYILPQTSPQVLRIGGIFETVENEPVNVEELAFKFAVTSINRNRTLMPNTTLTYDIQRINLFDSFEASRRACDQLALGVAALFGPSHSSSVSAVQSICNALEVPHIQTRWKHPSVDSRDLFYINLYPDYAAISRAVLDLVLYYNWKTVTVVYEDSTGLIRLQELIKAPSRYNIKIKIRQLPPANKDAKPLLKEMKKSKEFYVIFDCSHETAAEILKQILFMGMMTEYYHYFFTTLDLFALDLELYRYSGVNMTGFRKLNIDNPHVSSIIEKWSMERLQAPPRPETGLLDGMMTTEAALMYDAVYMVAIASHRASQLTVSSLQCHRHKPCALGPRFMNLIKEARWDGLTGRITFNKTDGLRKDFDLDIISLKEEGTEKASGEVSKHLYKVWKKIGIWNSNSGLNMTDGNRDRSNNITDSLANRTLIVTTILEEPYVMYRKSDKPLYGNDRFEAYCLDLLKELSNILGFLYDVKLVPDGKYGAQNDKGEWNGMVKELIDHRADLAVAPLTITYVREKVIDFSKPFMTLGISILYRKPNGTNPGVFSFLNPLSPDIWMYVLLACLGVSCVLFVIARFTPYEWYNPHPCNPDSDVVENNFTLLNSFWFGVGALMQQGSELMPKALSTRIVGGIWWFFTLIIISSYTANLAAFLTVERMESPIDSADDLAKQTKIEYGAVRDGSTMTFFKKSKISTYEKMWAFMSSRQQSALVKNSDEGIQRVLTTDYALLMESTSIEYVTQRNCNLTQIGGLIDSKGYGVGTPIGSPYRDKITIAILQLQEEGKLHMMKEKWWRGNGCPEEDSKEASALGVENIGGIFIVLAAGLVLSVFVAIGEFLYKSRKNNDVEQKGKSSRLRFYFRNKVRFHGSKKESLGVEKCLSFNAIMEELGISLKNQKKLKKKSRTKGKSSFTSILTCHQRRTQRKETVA
# [7] = biological target: T1, Glutamate receptor 1; experiment: Agonist activity at cyclothiazide-desensitized rat recombinant flop iGluR1 expressed in Xenopus laevis oocytes by two electrode voltage-clamp electrophysiology method; type: functional, cell-based, Oocyte
# [8] = biological target: T1, Glutamate receptor 1; experiment: Agonist activity at cyclothiazide-desensitized rat recombinant flip iGluR1 expressed in Xenopus laevis oocytes by two electrode voltage-clamp electrophysiology method; type: functional, cell-based, Oocyte
# [9] = biological target: T3, Glutamate receptor 3; experiment: Agonist activity at cyclothiazide-desensitized rat recombinant flip iGluR3 expressed in Xenopus laevis oocytes by two electrode voltage-clamp electrophysiology method; type: functional, cell-based, Oocyte
# [10] = biological target: T4, Glutamate receptor 4; experiment: Agonist activity at cyclothiazide-desensitized rat recombinant flip iGluR4 expressed in Xenopus laevis oocytes by two electrode voltage-clamp electrophysiology method; type: functional, cell-based, Oocyte
# [11] = biological target: T5, Glutamate receptor 1 (Homo sapiens, UniProt P42261); experiment: Agonist activity at cyclothiazide-desensitized human flip iGluR1 expressed in CHO-K1 cells by whole cell patch-clamp method; type: functional, cell-based
# T5 sequence (P42261 whole entry): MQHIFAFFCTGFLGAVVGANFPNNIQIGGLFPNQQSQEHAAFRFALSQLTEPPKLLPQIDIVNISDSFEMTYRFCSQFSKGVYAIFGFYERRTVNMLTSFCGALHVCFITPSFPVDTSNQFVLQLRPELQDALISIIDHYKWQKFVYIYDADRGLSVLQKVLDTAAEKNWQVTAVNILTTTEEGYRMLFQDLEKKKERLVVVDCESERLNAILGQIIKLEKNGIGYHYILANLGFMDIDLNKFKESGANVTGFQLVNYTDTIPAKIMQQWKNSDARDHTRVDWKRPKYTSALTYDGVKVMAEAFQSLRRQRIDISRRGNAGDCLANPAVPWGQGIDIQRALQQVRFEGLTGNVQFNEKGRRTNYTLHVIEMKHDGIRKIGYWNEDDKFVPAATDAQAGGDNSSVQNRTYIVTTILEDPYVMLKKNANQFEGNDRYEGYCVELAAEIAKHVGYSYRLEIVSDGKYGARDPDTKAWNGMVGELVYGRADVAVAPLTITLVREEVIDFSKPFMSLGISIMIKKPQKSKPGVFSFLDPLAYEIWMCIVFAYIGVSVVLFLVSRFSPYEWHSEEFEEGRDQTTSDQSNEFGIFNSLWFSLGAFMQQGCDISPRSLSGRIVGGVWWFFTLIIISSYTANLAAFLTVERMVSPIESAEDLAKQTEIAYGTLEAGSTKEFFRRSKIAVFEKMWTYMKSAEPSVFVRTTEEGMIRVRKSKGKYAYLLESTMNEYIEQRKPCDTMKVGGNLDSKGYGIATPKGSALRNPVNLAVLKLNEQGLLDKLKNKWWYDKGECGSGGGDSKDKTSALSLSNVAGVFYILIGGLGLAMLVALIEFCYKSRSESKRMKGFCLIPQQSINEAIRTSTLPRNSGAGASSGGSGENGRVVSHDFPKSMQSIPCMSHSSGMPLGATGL
# [12] = biological target: T5, Glutamate receptor 1; experiment: Antagonist activity at human flip iGluR1 expressed in CHO-K1 cells by whole cell patch-clamp method; type: functional, cell-based
# [13] = biological target: T2, Glutamate receptor 2
# [14] = biological target: Glutamate receptor ionotropic, kainate 1 (Homo sapiens, UniProt P39086); experiment: Antagonist activity at human iGluR5(Q)1b expressed in CHO-K1 cells by whole cell patch-clamp method; type: functional, cell-based
Compound,Ki [1] [µM],Ki [2] [µM],Ki [4] [µM],Ki [5] [µM],Ki [6] [µM],also measured
CC1(C)Cc2c(n(C[C@H](N)C(=O)O)c(=O)[nH]c2=O)C1,> 1000,0.102,1.51,1.59,0.976,Ki [3]: 0.126 µM
N[C@@H](Cn1c2c(c(=O)[nH]c1=O)CCC2)C(=O)O,> 1000,0.109,1.89,2.09,0.044,EC50 [7]: 24.9 µM
N[C@@H](Cn1c(=O)[nH]c(=O)c2ccccc21)C(=O)O,> 1000,2.39,6.91,15.7,0.49,Ki [3]: 3.39 µM
N[C@@H](Cn1c(=O)[nH]c(=O)c2cocc21)C(=O)O,> 1000,35.2,> 100,> 100,2.98,–
N[C@@H](Cn1cc(I)c(=O)[nH]c1=O)C(=O)O,> 100,0.083,0.976,0.738,0.0024,EC50 [7]: 33.6 µM
N[C@@H](Cn1cc(Br)c(=O)[nH]c1=O)C(=O)O,–,–,–,–,–,EC50 [7]: 2.8 µM
N[C@@H](Cn1cc(F)c(=O)[nH]c1=O)C(=O)O,> 100,0.0029,0.07,0.123,1.38,EC50 [8]: 0.38 µM; EC50 [9]: 20.9 µM; EC50 [10]: 11.9 µM
N[C@@H](Cn1c(=O)[nH]c(=O)c2sccc21)C(=O)O,> 1000,0.05,0.936,0.804,–,EC50 [8]: 7.2 µM; EC50 [9]: 120 µM; EC50 [10]: 90 µM; EC50 [11]: 4.1 µM; IC50 [12]: 0.374 µM; EC50 [13]: 11.8 µM; Ki [3]: 0.112 µM
N[C@@H](CCn1c2c(c(=O)[nH]c1=O)CCC2)C(=O)O,> 1000,> 100,> 100,> 100,> 1000,Ki [3]: > 100 µM
NC(Cn1ccc(=O)[nH]c1=O)C(=O)O (stereo not given),> 1000,0.41,–,14.2,> 100,–
N[C@H](Cn1c2c(c(=O)[nH]c1=O)CCC2)C(=O)O,–,10.4,–,> 100,–,–
N[C@@H](Cn1c2c(c(=O)[nH]c1=O)CSC2)C(=O)O,> 1000,0.058,0.311,0.288,–,EC50 [8]: 11.8 µM; EC50 [9]: 33.9 µM; EC50 [10]: 24.2 µM; EC50 [11]: 18.5 µM; IC50 [14]: 0.0038 µM; IC50 [6]: 0.0052 µM
N[C@@H](CCn1c2c(c(=O)n(CC[C@H](N)C(=O)O)c1=O)CCC2)C(=O)O,> 100,> 100,> 100,> 100,> 1000,Ki [3]: > 100 µM
C=C(C)[C@H]1CN[C@H](C(=O)O)[C@H]1CC(=O)O [KAINIC ACID],–,–,–,3.57,–,–
N[C@@H](Cn1cc(Cl)c(=O)[nH]c1=O)C(=O)O,> 100,0.037,0.451,0.561,0.047,–
NC(Cn1cc(Br)c(=O)[nH]c1=O)C(=O)O (racemic),> 100,0.035,0.434,0.656,0.0148,–
N[C@@H](Cn1ccc(=O)[nH]c1=O)C(=O)O [(S)-WILLARDIINE],–,–,–,–,–,EC50 [7]: 11.5 µM
"Cc1onc(O)c1CC(N)C(=O)O (racemic) [(R,S)-AMPA]",> 1000,–,–,–,–,–
